In patent publication US20070107072A1, “Transgenic amphibian models for lymphatic vessel development” (priority 2003, published 2007):

Test system: Prox-1
Experiment: Prox-1 antisense morpholino knockdown in Xenopus embryos, whole-mount in situ hybridisation for Prox1 and morphometry
Format: in vivo, Xenopus laevis
Settings: for reduction of total Prox-1 positive area: as compared to control tadpoles
Protocol: In a second example 25 ng of Prox-1 antisense morpholino oligonucleotides (Prox-1 MOs) was microinjected in a 1-cell stage Xenopus, in order to investigate the influence on the development of the lymphatic system. Prox1 is known to be expressed exclusively in lymphatic but not in blood vascular endothelial cells. Xenopus laevis embryos were obtained by artificial fertilization using standard techniques and sexually mature adult frogs purchased from Nasco Biology (Fort Atkinson, Wis.). The Prox-1 MOs, 5′-[…]-3′, were purchased from Gene Tools (Corvallis, Oreg.) and designed around the ATG codon. As ATG-specific morpholinos lower translation—but not transcription—of the target gene, we used whole embryo mount in situ hybridisation for Prox1 to visualize the defects in lymphatic vascular development. The 5′ nucleotide sequence of Prox-1 was obtained using 5′ RACE using primers based on published Xenopus laevis cDNA (GenBank # AB008773). To visualise Prox-1 expression pattern, embryos were collected at different developmental stages (according to Nieuwkoop and Faber), fixed and submitted to whole-mount in situ hybridisation according Harland (Harland, 1991), with the exception that BM purple was used as a substrate. The Prox-1 digoxigenin-labeled riboprobe used was constructed from a 950 bp cDNA fragment (GenBank # AB008773), which was cloned into pGEMTeasy and linearised with AatII to get SP6 antisense probe. After in situ hybridisation the embryos where bleached, cleared and stored in glycerol until analysed. Analysis was performed using a Zeiss Axioplan 2 imaging microscope equipped with a Axiocam HrC camera and the KS300 morphometry software. The total ISH-region was divided into 3 different regions where the first region represents the ventral side the tail, a second region where the dorsal migration of prox-1 positive cells takes place and finally a third region which represents the dorsal side. For all regions, length of positive staining was measured, followed by segmentation of the ISH-area by hue, lightness and saturation for defining the true stained area. A value of migration is given by the cell that traveled furthest across the tail. In non-morpholino treated Xenopus we observed that the normal lymphatic system starts developing at the jugular region of the tadpole around developmental stage 29/30. Apart from expression in non-lymphatic tissues such as the pronephros and the eye, the Prox-1 expression at this stage seems to be restricted to the jugular region. At the following stage (31-32), the staining in the jugular region is expanded to what will become the future lymphsacs. The region of the future anterior lymph hearts as well as the ventral caudal region show intense Prox-1 positive signal too. By stage 33/34 the prox positive cells in the caudal region start the formation of the ventral caudal lymphatic vessel. Prox-1 positive lymphatic cells are migrating from the ventral to the dorsal region and this event is culminating at stage 35/36 where the highest amount of migrating cells can be accounted for. The formation of what eventually will become the dorsal lymphatic vessel is also initiated at this stage. By stage 37-38 a majority of the prox positive cells have reached the dorsal side where they are contributing to the formation of dorsal caudal lymphatic vessels. […] In the tail of the Prox-1 morphants dorsal migration of Pro-1 positive cells is dearly impaired. […]

With “5′-CAGGCATCACTGGACTGTTATTGTG-3′ (all phosphorodiamidate morpholino (PMO)) [Prox-1 MOs, Prox-1 antisense morpholino oligonucleotides purchased from Gene Tools, designed around the ATG codon]” the “formation of the lymph hearts and the rostral lymphatic structures” value (Prox1 knockdown) was “impaired”, the “cardiogenesis (looping, septation and beating of the heart, and blood circulation)” value (Prox1 morphants) was “all normal” and the “development of blood vessels (number of Msr-positive intersomitic vessels in anterior trunk, Msr-positive area in posterior trunk)” value (Prox1 morphants) was “not affected”. For the same substance, the “Prox-1 staining of the anterior region” value (Prox-1 morphants) was “clearly reduced”, the “edema in the head and anterior trunk” value (beyond stage 45) was “manifest edema in the head and anterior trunk developed in most Prox1 knockdown embryos” and the “reduction of total Prox-1 positive area” value (stage 33/34) was “about 60%”. The “reduction of dorsal migration of Prox-1 positive cells in the tail” value (stage 35/36, 25 ng microinjected in 1-cell stage, vs control tadpoles) was “about 55%”, the “reduction of total Prox-1 positive area” value (stage 35/36) was ~50% and the “dorsal migration of Prox-1 positive cells in the tail” value (stage 37/38, 25 ng microinjected in 1-cell stage) was “significantly reduced”. The “reduction of total Prox-1 positive area” value (stage 37/38) was ~35%.
